Tests used:
Assay in all cases: Competitive isoTOP-ABPP, cell lysates;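 for isoTOP-ABPP reactivity profile ratio, P09211 C48: Heavy/light ratio DMSO over fragment-treated so higher means more cysteine engagement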;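 for isoTOP-ABPP reactivity profile ratio, Q15084 C190: Heavy/light ratio DMSO over fragment-treated so higher means more cysteine engagement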
Type in all cases: binding
UBE2S C118 (Q16763) = target: T1, UBE2S C118 (Q16763) (Homo sapiens, UniProt Q16763); conditions: for isoTOP-ABPP reactivity profile ratio, Q16763_C118: 500 μm
T1 sequence (Q16763 1-222): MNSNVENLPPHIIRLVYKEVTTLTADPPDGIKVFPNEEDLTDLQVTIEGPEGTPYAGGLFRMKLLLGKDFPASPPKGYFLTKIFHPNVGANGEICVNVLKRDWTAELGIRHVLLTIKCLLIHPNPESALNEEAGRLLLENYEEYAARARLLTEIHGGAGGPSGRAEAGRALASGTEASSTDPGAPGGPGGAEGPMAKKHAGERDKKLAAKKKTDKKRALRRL

XPO1 C528 (O14980) = XPO1 C528 (O14980) (Homo sapiens, UniProt O14980); conditions: for isoTOP-ABPP reactivity profile ratio, O14980_C528: 500 μm
XPO1 C34 (O14980) = XPO1 C34 (O14980) (Homo sapiens, UniProt O14980); conditions: for isoTOP-ABPP reactivity profile ratio, O14980_C34: 500 μm
PDIA6 C55 (Q15084) = target: T2, PDIA6 C55 (Q15084) (Homo sapiens, UniProt Q15084); conditions: for isoTOP-ABPP reactivity profile ratio, Q15084_C55: 500 μm
T2 sequence (Q15084 20-440): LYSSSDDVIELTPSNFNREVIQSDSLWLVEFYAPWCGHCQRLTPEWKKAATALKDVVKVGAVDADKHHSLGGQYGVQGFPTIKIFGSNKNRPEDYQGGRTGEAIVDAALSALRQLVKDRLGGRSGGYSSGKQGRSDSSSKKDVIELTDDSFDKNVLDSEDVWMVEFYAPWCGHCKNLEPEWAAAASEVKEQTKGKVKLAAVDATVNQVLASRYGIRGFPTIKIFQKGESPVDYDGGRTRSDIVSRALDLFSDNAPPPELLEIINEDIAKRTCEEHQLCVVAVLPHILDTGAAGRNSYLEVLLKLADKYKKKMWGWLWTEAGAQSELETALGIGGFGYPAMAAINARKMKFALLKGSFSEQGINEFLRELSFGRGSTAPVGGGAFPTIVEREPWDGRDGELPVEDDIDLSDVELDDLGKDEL

PDIA6 C190 (Q15084) = target: T3, PDIA6 C190 (Q15084) (Homo sapiens, UniProt Q15084); conditions: for isoTOP-ABPP reactivity profile ratio, Q15084_C190: 500 μm;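 for isoTOP-ABPP reactivity profile ratio, Q15084 C190: Heavy/light ratio DMSO over fragment-treated so higher means more cysteine engagement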
T3 sequence (Q15084 20-440): T2 sequence (Q15084 20-440)

SMARCC2 C145 (Q8TAQ2) = SMARCC2 C145 (Q8TAQ2) (Homo sapiens, UniProt Q8TAQ2); conditions: for isoTOP-ABPP reactivity profile ratio, Q8TAQ2_C145: 500 μm
GSTP1 C48 (P09211) = GSTP1 C48 (P09211) (Homo sapiens, UniProt P09211); conditions: for isoTOP-ABPP reactivity profile ratio, P09211_C48: 500 μm;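 for isoTOP-ABPP reactivity profile ratio, P09211 C48: Heavy/light ratio DMSO over fragment-treated so higher means more cysteine engagement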
ACAT1 C126 (P24752) = target: T4, ACAT1 C126 (P24752) (Homo sapiens, UniProt P24752); conditions: for isoTOP-ABPP reactivity profile ratio, P24752_C126: 500 μm
T4 sequence (P24752 34-427): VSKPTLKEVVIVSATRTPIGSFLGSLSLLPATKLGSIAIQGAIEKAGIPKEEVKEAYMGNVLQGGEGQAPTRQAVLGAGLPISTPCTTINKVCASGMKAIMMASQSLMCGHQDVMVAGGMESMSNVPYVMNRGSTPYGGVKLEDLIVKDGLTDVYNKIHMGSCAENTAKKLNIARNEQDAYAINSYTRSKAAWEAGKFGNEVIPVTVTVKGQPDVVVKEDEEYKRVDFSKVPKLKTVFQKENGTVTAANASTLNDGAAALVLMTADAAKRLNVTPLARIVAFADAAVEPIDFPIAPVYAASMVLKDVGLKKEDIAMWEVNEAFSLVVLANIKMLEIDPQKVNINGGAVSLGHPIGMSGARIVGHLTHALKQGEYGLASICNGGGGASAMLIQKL

ACAT1 C119 (P24752) = target: T5, ACAT1 C119 (P24752) (Homo sapiens, UniProt P24752); conditions: for isoTOP-ABPP reactivity profile ratio, P24752_C119: 500 μm
T5 sequence (P24752 34-427): T4 sequence (P24752 34-427)

SMARCC2 C145 (Q8TAQ2), sequence (Q8TAQ2 whole entry, the tested form may be a part): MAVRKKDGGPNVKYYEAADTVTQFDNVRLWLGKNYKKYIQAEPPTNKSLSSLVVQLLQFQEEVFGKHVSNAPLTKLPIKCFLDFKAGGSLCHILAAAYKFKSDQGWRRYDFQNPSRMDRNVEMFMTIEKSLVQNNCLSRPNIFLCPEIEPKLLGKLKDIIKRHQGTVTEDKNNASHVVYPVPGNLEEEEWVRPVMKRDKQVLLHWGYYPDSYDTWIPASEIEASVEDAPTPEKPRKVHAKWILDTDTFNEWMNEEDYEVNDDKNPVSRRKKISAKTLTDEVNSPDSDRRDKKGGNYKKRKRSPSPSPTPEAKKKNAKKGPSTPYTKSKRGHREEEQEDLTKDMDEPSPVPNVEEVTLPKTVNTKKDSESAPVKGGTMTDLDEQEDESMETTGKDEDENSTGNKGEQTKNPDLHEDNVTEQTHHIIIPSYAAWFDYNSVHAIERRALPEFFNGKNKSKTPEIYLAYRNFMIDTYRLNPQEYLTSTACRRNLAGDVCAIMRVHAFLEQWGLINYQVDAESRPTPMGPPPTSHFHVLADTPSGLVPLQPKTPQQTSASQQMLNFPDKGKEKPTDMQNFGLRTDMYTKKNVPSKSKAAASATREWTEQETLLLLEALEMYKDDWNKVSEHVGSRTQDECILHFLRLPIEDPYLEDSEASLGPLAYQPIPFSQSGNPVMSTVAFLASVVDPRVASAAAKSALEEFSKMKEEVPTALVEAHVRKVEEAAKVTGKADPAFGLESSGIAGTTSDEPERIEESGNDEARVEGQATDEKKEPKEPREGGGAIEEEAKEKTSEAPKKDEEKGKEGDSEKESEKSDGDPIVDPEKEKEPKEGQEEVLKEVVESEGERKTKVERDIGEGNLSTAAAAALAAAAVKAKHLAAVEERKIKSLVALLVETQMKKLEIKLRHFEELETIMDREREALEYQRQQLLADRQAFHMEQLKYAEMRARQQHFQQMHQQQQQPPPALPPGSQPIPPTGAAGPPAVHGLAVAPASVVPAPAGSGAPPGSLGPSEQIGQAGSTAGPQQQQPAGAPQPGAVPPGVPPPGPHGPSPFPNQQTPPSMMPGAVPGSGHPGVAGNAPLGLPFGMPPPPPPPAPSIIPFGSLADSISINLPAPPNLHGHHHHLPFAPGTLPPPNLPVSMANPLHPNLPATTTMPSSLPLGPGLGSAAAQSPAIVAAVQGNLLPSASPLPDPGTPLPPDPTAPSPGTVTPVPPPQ
GSTP1 C48 (P09211), sequence (P09211 whole entry, the tested form may be a part): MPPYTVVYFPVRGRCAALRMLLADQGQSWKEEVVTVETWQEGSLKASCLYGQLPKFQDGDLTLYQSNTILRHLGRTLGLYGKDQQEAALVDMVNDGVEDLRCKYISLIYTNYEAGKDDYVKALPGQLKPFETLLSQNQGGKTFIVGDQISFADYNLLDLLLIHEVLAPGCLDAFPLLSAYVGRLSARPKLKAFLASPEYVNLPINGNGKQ
XPO1 C34 (O14980), sequence (O14980 whole entry): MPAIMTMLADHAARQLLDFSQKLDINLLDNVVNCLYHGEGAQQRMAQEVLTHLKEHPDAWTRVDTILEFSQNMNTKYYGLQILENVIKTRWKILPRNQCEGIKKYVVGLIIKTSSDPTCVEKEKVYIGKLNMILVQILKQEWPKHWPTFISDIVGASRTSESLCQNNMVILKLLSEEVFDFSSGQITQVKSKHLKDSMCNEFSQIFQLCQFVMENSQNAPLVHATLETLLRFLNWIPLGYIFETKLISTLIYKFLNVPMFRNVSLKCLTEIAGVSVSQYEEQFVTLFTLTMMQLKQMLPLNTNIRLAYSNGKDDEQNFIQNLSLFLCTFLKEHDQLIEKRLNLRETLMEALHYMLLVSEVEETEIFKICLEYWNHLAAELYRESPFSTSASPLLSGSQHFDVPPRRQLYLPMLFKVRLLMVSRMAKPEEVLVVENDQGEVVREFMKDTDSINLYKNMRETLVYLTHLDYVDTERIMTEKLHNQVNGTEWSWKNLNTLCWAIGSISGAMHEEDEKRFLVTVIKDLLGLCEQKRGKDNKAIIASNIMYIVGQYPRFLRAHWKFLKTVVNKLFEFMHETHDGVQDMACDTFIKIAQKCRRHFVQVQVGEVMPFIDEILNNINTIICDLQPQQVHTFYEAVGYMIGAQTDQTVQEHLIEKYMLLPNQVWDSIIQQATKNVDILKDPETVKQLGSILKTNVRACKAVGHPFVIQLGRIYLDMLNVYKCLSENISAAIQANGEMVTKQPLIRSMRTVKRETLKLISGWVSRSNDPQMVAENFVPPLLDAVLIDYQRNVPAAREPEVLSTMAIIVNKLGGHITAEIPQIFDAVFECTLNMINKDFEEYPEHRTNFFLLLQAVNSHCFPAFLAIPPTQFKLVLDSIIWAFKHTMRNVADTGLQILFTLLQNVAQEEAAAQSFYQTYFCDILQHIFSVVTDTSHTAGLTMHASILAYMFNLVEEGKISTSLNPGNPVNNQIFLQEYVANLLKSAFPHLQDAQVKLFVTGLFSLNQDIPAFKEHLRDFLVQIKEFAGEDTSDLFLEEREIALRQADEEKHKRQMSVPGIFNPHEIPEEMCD
XPO1 C528 (O14980), sequence (O14980 whole entry): as above

Compound	isoTOP-ABPP reactivity profile ratio, Q16763_C118 (UBE2S C118 (Q16763); in-vitro_ramos_231)	isoTOP-ABPP reactivity profile ratio, O14980_C528 (XPO1 C528 (O14980); in-vitro_ramos_231)	isoTOP-ABPP reactivity profile ratio, O14980_C34 (XPO1 C34 (O14980); in-vitro_ramos_231)	isoTOP-ABPP reactivity profile ratio, Q15084_C55 (PDIA6 C55 (Q15084); in-vitro_ramos_231)	isoTOP-ABPP reactivity profile ratio, Q15084_C190 (PDIA6 C190 (Q15084); in-vitro_ramos_231)	isoTOP-ABPP reactivity profile ratio, Q8TAQ2_C145 (SMARCC2 C145 (Q8TAQ2); in-vitro_ramos_231)	isoTOP-ABPP reactivity profile ratio, P09211_C48 (GSTP1 C48 (P09211); in-vitro_ramos_231)	isoTOP-ABPP reactivity profile ratio, P24752_C126 (ACAT1 C126 (P24752); in-vitro_ramos_231)	isoTOP-ABPP reactivity profile ratio, P24752_C119 (ACAT1 C119 (P24752); in-vitro_ramos_231)	isoTOP-ABPP reactivity profile ratio, O14980_C34 (XPO1 C34 (O14980); in-vitro_ramos)	isoTOP-ABPP reactivity profile ratio, Q15084_C55 (PDIA6 C55 (Q15084); in-vitro_ramos)	isoTOP-ABPP reactivity profile ratio, Q15084_C190 (PDIA6 C190 (Q15084); in-vitro_ramos)	isoTOP-ABPP reactivity profile ratio, Q8TAQ2_C145 (SMARCC2 C145 (Q8TAQ2); in-vitro_ramos)	isoTOP-ABPP reactivity profile ratio, P09211_C48 (GSTP1 C48 (P09211); in-vitro_ramos)	isoTOP-ABPP reactivity profile ratio, P24752_C119 (ACAT1 C119 (P24752); in-vitro_ramos)	isoTOP-ABPP ratio (reactivity profile), Q16763_C118 (UBE2S C118 (Q16763); 500 μm in-vitro ramos)	isoTOP-ABPP ratio (reactivity profile), O14980_C528 (XPO1 C528 (O14980); 500 μm in-vitro ramos)	isoTOP-ABPP ratio (reactivity profile), O14980_C34 (XPO1 C34 (O14980); 500 μm in-vitro ramos)	isoTOP-ABPP ratio (reactivity profile), O14980_C34 (XPO1 C34 (O14980); 500 μm in-vitro ramos_231)	isoTOP-ABPP ratio (reactivity profile), Q15084_C55 (PDIA6 C55 (Q15084); 500 μm in-vitro ramos)	further results
C=CC(=O)N(c1ccccc1)C1CCCCC1 [compound 46]	1.0	0.7	1.0	0.8	0.9	1.0	1.0	0.9	0.8												
O=C(CCl)N1CCC(C(O)(c2ccccc2)c2ccccc2)CC1 [compound 20]																2.9	4.0	1.2	1.0	2.0	isoTOP-ABPP ratio (reactivity profile), O14980_C528 (XPO1 C528 (O14980); 500 μm in-vitro ramos_231): 1.4; isoTOP-ABPP ratio (reactivity profile), Q15084_C55 (PDIA6 C55 (Q15084); 500 μm in-vitro ramos_231): 1.7; isoTOP-ABPP ratio (reactivity profile), Q15084_C190 (PDIA6 C190 (Q15084); 500 μm in-vitro ramos): 2.1; isoTOP-ABPP ratio (reactivity profile), Q15084_C190 (PDIA6 C190 (Q15084); 500 μm in-vitro ramos_231): 2.1; isoTOP-ABPP ratio (reactivity profile), Q8TAQ2_C145 (SMARCC2 C145 (Q8TAQ2); 500 μm in-vitro ramos): 3.9; isoTOP-ABPP ratio (reactivity profile), Q8TAQ2_C145 (SMARCC2 C145 (Q8TAQ2); 500 μm in-vitro ramos_231): 2.9; isoTOP-ABPP ratio (reactivity profile), P09211_C48 (GSTP1 C48 (P09211); 500 μm in-vitro ramos): 1.1; isoTOP-ABPP ratio (reactivity profile), P09211_C48 (GSTP1 C48 (P09211); 500 μm in-vitro ramos_231): 2.5; isoTOP-ABPP ratio (reactivity profile), P24752_C126 (ACAT1 C126 (P24752); 500 μm in-vitro ramos): 20.0; isoTOP-ABPP ratio (reactivity profile), P24752_C126 (ACAT1 C126 (P24752); 500 μm in-vitro ramos_231): 10.6; isoTOP-ABPP ratio (reactivity profile), P24752_C119 (ACAT1 C119 (P24752); 500 μm in-vitro ramos): 2.6; isoTOP-ABPP ratio (reactivity profile), P24752_C119 (ACAT1 C119 (P24752); 500 μm in-vitro ramos_231): 3.6
N#C/C(=C\c1cc(C(F)(F)F)cc(C(F)(F)F)c1)C(N)=O [compound 23]																2.4	2.9	5.3	3.4	1.0	isoTOP-ABPP ratio (reactivity profile), Q16763_C118 (UBE2S C118 (Q16763); 500 μm in-vitro ramos_231): 1.6; isoTOP-ABPP ratio (reactivity profile), Q15084_C55 (PDIA6 C55 (Q15084); 500 μm in-vitro ramos_231): 0.8; isoTOP-ABPP ratio (reactivity profile), Q15084_C190 (PDIA6 C190 (Q15084); 500 μm in-vitro ramos): 1.1; isoTOP-ABPP ratio (reactivity profile), Q15084_C190 (PDIA6 C190 (Q15084); 500 μm in-vitro ramos_231): 0.8; isoTOP-ABPP ratio (reactivity profile), Q8TAQ2_C145 (SMARCC2 C145 (Q8TAQ2); 500 μm in-vitro ramos_231): 1.3; isoTOP-ABPP ratio (reactivity profile), P09211_C48 (GSTP1 C48 (P09211); 500 μm in-vitro ramos): 0.9; isoTOP-ABPP ratio (reactivity profile), P09211_C48 (GSTP1 C48 (P09211); 500 μm in-vitro ramos_231): 0.8; isoTOP-ABPP ratio (reactivity profile), P24752_C126 (ACAT1 C126 (P24752); 500 μm in-vitro ramos): 0.8; isoTOP-ABPP ratio (reactivity profile), P24752_C126 (ACAT1 C126 (P24752); 500 μm in-vitro ramos_231): 0.8; isoTOP-ABPP ratio (reactivity profile), P24752_C119 (ACAT1 C119 (P24752); 500 μm in-vitro ramos): 2.0; isoTOP-ABPP ratio (reactivity profile), P24752_C119 (ACAT1 C119 (P24752); 500 μm in-vitro ramos_231): 1.7

More lines, main results first:

isoTOP-ABPP reactivity profile ratio, Q16763_C118 (UBE2S C118 (Q16763); in-vitro_ramos_231)	isoTOP-ABPP reactivity profile ratio, O14980_C528 (XPO1 C528 (O14980); in-vitro_ramos_231)	isoTOP-ABPP reactivity profile ratio, O14980_C34 (XPO1 C34 (O14980); in-vitro_ramos_231)	isoTOP-ABPP reactivity profile ratio, Q15084_C55 (PDIA6 C55 (Q15084); in-vitro_ramos_231)	isoTOP-ABPP reactivity profile ratio, Q15084_C190 (PDIA6 C190 (Q15084); in-vitro_ramos_231)	isoTOP-ABPP reactivity profile ratio, Q8TAQ2_C145 (SMARCC2 C145 (Q8TAQ2); in-vitro_ramos_231)	isoTOP-ABPP reactivity profile ratio, P09211_C48 (GSTP1 C48 (P09211); in-vitro_ramos_231)	isoTOP-ABPP reactivity profile ratio, P24752_C126 (ACAT1 C126 (P24752); in-vitro_ramos_231)	isoTOP-ABPP reactivity profile ratio, P24752_C119 (ACAT1 C119 (P24752); in-vitro_ramos_231)	isoTOP-ABPP reactivity profile ratio, O14980_C34 (XPO1 C34 (O14980); in-vitro_ramos)	isoTOP-ABPP reactivity profile ratio, Q15084_C55 (PDIA6 C55 (Q15084); in-vitro_ramos)	isoTOP-ABPP reactivity profile ratio, Q15084_C190 (PDIA6 C190 (Q15084); in-vitro_ramos)	isoTOP-ABPP reactivity profile ratio, Q8TAQ2_C145 (SMARCC2 C145 (Q8TAQ2); in-vitro_ramos)	isoTOP-ABPP reactivity profile ratio, P09211_C48 (GSTP1 C48 (P09211); in-vitro_ramos)	isoTOP-ABPP reactivity profile ratio, P24752_C119 (ACAT1 C119 (P24752); in-vitro_ramos)	Compound	isoTOP-ABPP ratio (reactivity profile), Q16763_C118 (UBE2S C118 (Q16763); 500 μm in-vitro ramos)	isoTOP-ABPP ratio (reactivity profile), O14980_C528 (XPO1 C528 (O14980); 500 μm in-vitro ramos)	isoTOP-ABPP ratio (reactivity profile), O14980_C34 (XPO1 C34 (O14980); 500 μm in-vitro ramos)	isoTOP-ABPP ratio (reactivity profile), O14980_C34 (XPO1 C34 (O14980); 500 μm in-vitro ramos_231)	isoTOP-ABPP ratio (reactivity profile), Q15084_C55 (PDIA6 C55 (Q15084); 500 μm in-vitro ramos)	further results
1.2	1.3	1.0	1.1	1.0	0.9	1.0	1.3	1.4	1.1	1.8	1.9	1.8	1.9	0.8	O=C(CCl)Nc1ccc(-c2ccccc2)cc1 [compound 52]						
		0.9	2.5			1.1	1.0	0.8	1.0	2.7	5.6	1.1	1.0	0.9	O=C(CCl)Nc1cccc2ncccc12 [compound 51]						isoTOP-ABPP reactivity profile ratio, Q16763_C118 (UBE2S C118 (Q16763); in-vitro_ramos): 0.9; isoTOP-ABPP reactivity profile ratio, O14980_C528 (XPO1 C528 (O14980); in-vitro_ramos): 0.9; isoTOP-ABPP reactivity profile ratio, P24752_C126 (ACAT1 C126 (P24752); in-vitro_ramos): 1.2
